Consider one sequence from patent US20110124842A1 (priority 2003, published 2011).

Like-named read-outs stand apart in the source and are kept apart here.

One test deals with IgG 4E10. As to the kind of experiment: Competitive ELISA (IC50): peptide competes with biotinylated 4E10-epitope peptide for IgG 4E10. It is filed as binding, human. How it is done: IC50, were determined by competitive ELISA using a constant concentration of biotinylated peptide and IgG with a variable concentration of gp41 peptides. Microwells were coated overnight at 4° C. with 50 μl PBS containing neutravidin (Pierce; 4 μg/ml). […] A mixture of a biotinylated 4E10-epitope peptide, […](biotin)-NH2 (SEQ ID NO: 88) (20 nM), IgG 4E10 (0.2 nM), and the competing peptide analog (3-fold dilution series starting at 10 μM) in 0.4% non-fat dry milk, 0.02% Tween and PBS was incubated in a separate 96-well plate at 37° C. for 2 hours. After washing the blocked plate, the mixture of 4E10, biotinylated peptide and competing peptide was added to the wells. After 20 minutes at room temperature, the Wells were washed five times, and a 1:500 dilution of goat anti-human IgG F(ab′)2 HRP conjugate (Pierce) was added. Following incubation at RT for 40 minutes, the wells were washed five times, and developed by adding 50 μl of TMB solution (Pierce) according to the manufacturer's instructions. After ˜20 minutes, wells containing TMB solution were stopped by adding 50 μl of H2SO4 (2M) and the O.D. at 450 nm was read on a microplate reader (Molecular Devices). The concentration of competitor peptide corresponding to a half-maximal signal (IC50) was determined by interpolation of the resulting binding curve. Each peptide competitor was tested in duplicate in at least two separate experiments.
IC50s were determined by competitive ELISA using a constant concentration of biotinylated peptide and IgG with a variable concentration of gp41 peptides. Microwells were coated overnight at 4° C. with 50 μl PBS containing neutravidin (Pierce; 4 μg/ml). […] Meanwhile, a mixture of a biotinylated 4E10-peptide epitope, […](biotin)-NH2 (SEQ ID NO: 88), (20 nM), IgG 4E10 (0.2 nM), and the competing peptide analogue (3-fold dilution series starting at 10 μM) in 0.4% NFDM, 0.02% Tween and PBS was incubated in a separate 96-well plate at 37° C. for 2 h. After washing the blocked plate, the mixture of 4E10, biotinylated peptide and competing peptide was added to the wells. After 20 min at room temperature, the wells were washed five times, and a 1:500 dilution of goat anti-human IgG F(ab′)2 HRP conjugate (Pierce) was added. Following incubation at RT for 40 min, the wells were washed five times, and developed by adding 50 μl of H2SO4 (2 M), and the O.D. at 450 nm was read on a microplate reader (Molecular Devices). The concentration of competitor peptide corresponding to a half-maximal signal (IC50) was determined by interpolation of the resulting binding curve. Each peptide competitor was tested in duplicate in at least two separate experiments.
For orientation: An ELISA detects its analyte on a solid surface through an enzyme-linked reagent.

Another test has as its system Fab 4E10. As to the kind of experiment: Surface plasmon resonance (Biacore 2000), Fab 4E10 on CM5 chip. It is filed as binding, human. The procedure: The affinitiefs of the peptide analogs for 4E10 were also measured by surface plasmon resonance. Surface plasmon resonance experiments were performed using a Biacore 2000 instrument (Uppsala, Sweden). Around 2,200 response units (RU) of Fab 4E10 were coated on CM5 chips. The carboxyl groups on the chip were activated with 1-ethyl-3-(3-dimethylaminopropyl)carbodiimide hydrochloride (EDC) and N-hydroxysuccinimide (NHS). Fifty micrograms of Fab were diluted in 10 mM sodium acetate pH 4.5; a flow rate of 5 μl/min was used. Unreacted carboxyl groups were blocked with 1M ethanolamine at pH 8.5. The control was treated in the same fashion without any antibody present. Different amounts of free peptides were then passed over the surfaces at 30 or 50 μl/min for 2 min. Regeneration was done in HPS-EP buffer, 0.25 NaCl (Biacore) in 10 minutes. The amount of salt was increased compared to the commercial buffer to reduce the non-specific binding. For data evaluation, the BIAevaluation software was used. RI and Rmax were controlled, double referencing were done (0 concentration and start point). Analyses were performed to achieve the best curve fitting and small chi^2 (<1).
Surface plasmon resonance experiments were performed using a Biacore 2000 instrument (Uppsala, Sweden).
Chip preparation: around 2,200 response units (RU) of Fab 4E10 were coated on CM5 chips. The carboxyl groups on the chip were activated with 1-ethyl-3-(3-dimethylaminopropyl) carbodiimide hydrochloride (EDC) and N-hydroxysuccinimide (NHS). Fifty micrograms of Fab was diluted in 10 mM sodium acetate pH 4.5; a flow rate of 5 μl/min was used. Unreacted carboxyl groups were blocked with 1M ethanolamine at pH 8.5. The control was treated in the same fashion without any antibody present.
Experiment: different amounts of free peptides were then passed over the surfaces at 30 or 50 μl/min for 2 min. Regeneration was done in HPS-EP buffer, 0.25 NaCl (Biacore) in 10 min. The amount of salt was increased compared to the commercial buffer to reduce the non-specific binding.
Data evaluation: the BIAevaluation software was used. RI and Rmax were controlled, double referencing were done (0 concentration and start point). Analyses were performed to achieve the best curve fitting and small chi^2 (<1).
Background: Surface plasmon resonance follows binding to a sensor surface in real time, without labels.

By IC50 is commonly meant the point on the concentration scale where inhibition reaches its midpoint. Broadly, the koff is the rate constant with which the complex falls apart. A lower koff goes with a long-lived complex. By kon is commonly meant the second-order rate constant of association. A higher kon goes with fast association. One may read the Kd as the concentration at which binding is half-saturated. In the case of “NWFDITNWLWYIKKKK [Peptide 94-1, NWFDITNWLWYIKKKK-NH2]”, in the test with IgG 4E10, the “improvement in 4E10 binding (IC50) over the starting peptide NWFDITNWLWKKKK-NH2” value is 4 fold and the “improvement in IC50 compared to KGND” value was “over 1000 fold”. Moreover, the IC50 in the test with IgG 4E10 (Table 5, unconstrained peptide analogs, 4E10 binding, read-out: IC50) is 10 nM. Also, in the test with IgG 4E10 (Table 7, 4E10 peptide epitopes, read-out: IC50), the IC50 was 10 nM. In the test on IgG 4E10 (as determined by surface plasmon resonance and ELISA), the “higher affinity of 4E10 than to the original peptide KGND” value is “approximately 10^3 fold”. For the same sequence, the IC50 with IgG 4E10 (read-out: IC50 (4E10 binding, competitive ELISA)) is 10 nM. Moreover, in the test on Fab 4E10 (Table 7), the “higher affinity of 4E10 than to peptide 33-1” value is listed as “about 17 fold”, the off-rate (koff) amounted to 0.0138 s⁻¹ and the kon is 691000 M⁻¹ s⁻¹. Further, the Kd on Fab 4E10 (Table 7, 4E10 peptide epitopes, read-out: Kd) was found to be 20 nM. In addition, the dissociation constant Kd at Fab 4E10 (read-out: Kd (Biacore)) is 18 nM.
